Results reported in US20190076406A1, “METHODS AND COMPOSITIONS FOR TREATING CONDITIONS ASSOCIATED WITH ANGIOGENESIS USING A VASCULAR ADHESION PROTEIN-1 (VAP-1) INHIBITOR” (MASSACHUSETTS EYE & EAR INFIRMARY, priority 2007, published 2019).

Columns and labels:
[1] = biological target: T1, human semicarbazide-sensitive amine oxidase (SSAO) (Homo sapiens, UniProt Q16853); experiment: IC50 against human SSAO; format: biochemical
T1 sequence (Q16853 1-763): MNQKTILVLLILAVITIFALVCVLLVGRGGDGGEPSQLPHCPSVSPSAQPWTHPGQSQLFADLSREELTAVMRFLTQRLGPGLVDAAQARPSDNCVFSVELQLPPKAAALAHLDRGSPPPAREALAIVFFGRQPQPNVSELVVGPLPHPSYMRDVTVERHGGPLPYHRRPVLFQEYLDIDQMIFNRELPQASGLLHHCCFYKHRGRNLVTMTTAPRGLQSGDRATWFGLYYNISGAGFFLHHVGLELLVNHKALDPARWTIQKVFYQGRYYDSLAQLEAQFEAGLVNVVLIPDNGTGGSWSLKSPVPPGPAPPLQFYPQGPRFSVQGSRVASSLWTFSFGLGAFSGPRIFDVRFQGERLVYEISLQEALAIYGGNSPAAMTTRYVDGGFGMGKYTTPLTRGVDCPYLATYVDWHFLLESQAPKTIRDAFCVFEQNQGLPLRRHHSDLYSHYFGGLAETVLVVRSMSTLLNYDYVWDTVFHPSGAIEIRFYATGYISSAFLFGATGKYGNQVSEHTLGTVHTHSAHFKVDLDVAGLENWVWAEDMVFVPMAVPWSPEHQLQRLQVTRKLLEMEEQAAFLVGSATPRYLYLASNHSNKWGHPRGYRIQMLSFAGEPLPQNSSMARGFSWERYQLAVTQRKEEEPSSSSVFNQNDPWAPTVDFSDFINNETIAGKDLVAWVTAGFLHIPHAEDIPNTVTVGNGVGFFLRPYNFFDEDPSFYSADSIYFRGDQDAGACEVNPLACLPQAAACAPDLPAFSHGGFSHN

[2] = biological target: T2, rat semicarbazide-sensitive amine oxidase (SSAO) (Rattus norvegicus, UniProt O08590); experiment: IC50 against rat SSAO; format: biochemical
T2 sequence (O08590 1-763): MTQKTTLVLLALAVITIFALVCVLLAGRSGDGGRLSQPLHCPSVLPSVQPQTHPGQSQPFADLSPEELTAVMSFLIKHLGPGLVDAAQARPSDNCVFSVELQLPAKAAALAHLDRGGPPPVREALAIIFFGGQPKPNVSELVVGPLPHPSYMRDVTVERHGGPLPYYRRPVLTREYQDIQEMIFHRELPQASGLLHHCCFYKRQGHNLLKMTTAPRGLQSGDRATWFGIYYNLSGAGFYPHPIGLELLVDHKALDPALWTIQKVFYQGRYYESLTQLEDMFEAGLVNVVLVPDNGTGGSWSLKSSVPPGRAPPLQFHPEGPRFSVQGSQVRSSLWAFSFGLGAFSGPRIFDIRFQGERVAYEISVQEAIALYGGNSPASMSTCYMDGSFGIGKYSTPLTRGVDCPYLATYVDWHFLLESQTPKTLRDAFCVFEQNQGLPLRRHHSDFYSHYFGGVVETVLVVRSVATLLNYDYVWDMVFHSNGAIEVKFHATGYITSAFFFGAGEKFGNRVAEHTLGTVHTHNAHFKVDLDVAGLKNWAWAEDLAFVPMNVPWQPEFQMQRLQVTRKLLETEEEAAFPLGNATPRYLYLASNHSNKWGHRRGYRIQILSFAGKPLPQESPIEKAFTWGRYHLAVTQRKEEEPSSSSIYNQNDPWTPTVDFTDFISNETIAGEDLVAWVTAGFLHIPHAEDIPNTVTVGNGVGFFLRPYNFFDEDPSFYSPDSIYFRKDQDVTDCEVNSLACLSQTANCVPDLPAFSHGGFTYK

MAO-B = biological target: T3, MAO-B (Homo sapiens, UniProt P27338); experiment: IC50 against MAO-B; format: biochemical
T3 sequence (P27338 1-520): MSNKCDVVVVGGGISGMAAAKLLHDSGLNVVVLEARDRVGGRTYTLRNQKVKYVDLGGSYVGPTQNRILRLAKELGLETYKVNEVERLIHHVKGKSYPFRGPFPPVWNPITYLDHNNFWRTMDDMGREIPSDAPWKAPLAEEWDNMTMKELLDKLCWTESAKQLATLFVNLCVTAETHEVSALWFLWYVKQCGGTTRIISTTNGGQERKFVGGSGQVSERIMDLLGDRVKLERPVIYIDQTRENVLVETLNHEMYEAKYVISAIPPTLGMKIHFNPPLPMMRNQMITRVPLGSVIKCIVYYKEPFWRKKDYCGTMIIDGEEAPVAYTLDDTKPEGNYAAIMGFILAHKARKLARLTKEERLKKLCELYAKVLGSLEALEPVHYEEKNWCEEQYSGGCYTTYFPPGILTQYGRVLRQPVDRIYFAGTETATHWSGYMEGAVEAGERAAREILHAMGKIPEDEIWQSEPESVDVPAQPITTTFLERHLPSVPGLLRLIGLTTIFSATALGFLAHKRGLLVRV

ICAM-1 = experiment: ELISA of ICAM-1 in RPE-choroid complex after laser injury; format: in vivo, rat; settings: 3 days after laser injury; 0.3 mg/kg daily i.p.; mean±SEM
Experimental: Brown-Norway rats were anesthetized with 0.2-0.3 ml of a 50:50 mixture of 100 mg/ml Ketamine and 20 mg/ml Xylazine. Pupils were dilated with 5.0% Phenylephrine and 0.8% Tropicamide. CNV was induced with a 532 nm laser (Oculight GLx, Iridex, Mountain View, Calif.). Six laser spots (150 mW, 100 μm, 100 msec) were placed in each eye using a slit-lamp delivery system and a cover glass as a contact lens. Production of a bubble at the time of laser confirmed the rupture of the Bruch's membrane.
To block VAP-1, a specific VAP-1 inhibitor, Compound II described above, was used (R-tech Ueno, Ltd., Tokyo, Japan). […]
The RPE-choroid complex was carefully isolated from eyes 3 days after photocoagulation and placed in 300 μl of lysis buffer supplemented with protease inhibitors and sonicated. The lysate was centrifuged at 15,000 rpm for 15 minutes at 4° C. and the levels of TNF-α, monocyte chemotactic protein (MCP)-1, and intercellular adhesion molecule (ICAM)-1 were determined with rat TNF-α (BD bioscience), MCP-1 (BD bioscience) and ICAM-1 (R&D Systems, Minneapolis, Minn.) enzyme-linked immunosorbent assay (ELISA) kits according to the manufacturers' protocols. Total protein concentration was determined using a Bio-Rad Protein Assay Kit (Bio-Rad Laboratories Hercules, Calif.) and dilutions of bovine serum albumin (Bio-Rad Laboratories) as standards.

Structure (SMILES): CC(=O)Nc1nc(CCc2ccc(NC(=N)NN)cc2)c(Cc2ccc(S(C)(=O)=O)cc2)s1 [Compound II]
- IC50 [1]: 7 nM
- IC50 [2]: 8 nM
- IC50 (MAO-B): > 10000 nM
- ICAM-1 protein level in RPE-choroid complex (ICAM-1): 57 ± 2 ng/mg
